Read-outs that look alike come from different tables or passages of the source.

Series [1] concerns acute heat responses in mice. The series is classed as in vivo, mouse (C57BL/6 J). The conditions noted are these: n = 6. The method, then: Paw-withdrawal latency in mice pre-administered phlotoxin 1 (i.p. 50 μg/kg; Venomtech, Valbonne, France), thiorphan (i.p. 20 mg/kg), buprenorphine (i.p. 50 μg/kg), or combinations, was determined using the Hargreaves apparatus (Plantar Analgesia Meter, IITC, CA, USA), with three withdrawal responses measured per animal.

The subject of series [2] is inflammatory pain in rodents. The conditions noted are these: rodent model of inflammatory pain; cited from earlier work. From the text: (§1) However, while NaV1.7 is expressed on axons, it is unlikely to have a major role in action potential propagation, given it has slow recovery from fast inactiv ...
For series [3] the following is noted: cited from earlier work.
Description: as §1

The test system of series [4] is NaV1.7. As to conditions: cited from earlier work. From the text:
In general, spider venom-derived peptides bind to the voltage-sensing domains of NaV channels to modify gating associated with channel activation and inactivation.

In series [5] the test system is carrageenan-induced mechanical allodynia in mice. Nature of the series: Carrageenan-induced mechanical allodynia (electronic von Frey). Type of series: in vivo, mouse (C57BL/6 J). As to the method:
(§2) For behavioural assessment we used adult male C57BL/6 J mice or Sprague Dawley rats aged 5–8 weeks. Animals were housed in groups of 2–4 per cage, under 12 h light-dark cycles with standard rodent chow and water ad libitum. All assessments were performed by a blinded investigator unaware of the treatment each animal received. Ethical approval for in vivo experiments in animals was obtained from the University of Queensland, University of Sydney or United Kingdom Home Office animal ethics committee. Experiments involving animals were conducted in accordance with the International Association for the Study of Pain Guidelines for the Use of Animals in Research and the Australian Code of Practice for the Care and Use of Animals for Scientific Purposes, 8th edition (2013).
(§3) Carrageenan (1% w/v) was administered by i.pl injection in mice as previously described. Behavioural assessment was performed 3 h post-injection. […] Mechanical thresholds were determined using electronic von Frey (MouseMet Electronic von Frey, TopCat Metrology, UK) as previously described. Thermal thresholds were determined using the thermal probe test (MouseMet Thermal, TopCat Metrology) as described.

Series [6] concerns carrageenan-induced thermal allodynia in mice. Nature of the series: Carrageenan-induced thermal allodynia (thermal probe test). Type of series: in vivo, mouse (C57BL/6 J). The conditions noted are these: P > 0.05. As to the method:
as §2, §3

Series [7] has as its system NaV1.7. The conditions noted are these: 30 mg/kg; cited from earlier work.
A further series deals with rat NaV1.7 channel. The conditions noted are these: cited from earlier work.
In series [8] the test system is noxious heat response in mice. Nature of the series: Hot plate test (50 °C), noxious heat. As to conditions: 30 mg/kg i.p., control 25.9 ± 1.8 s, P > 0.05, n = 6–16. Type of series: in vivo, mouse (C57BL/6 J). In general terms: In hot-plate and tail-flick tests a longer latency is read as antinociception.
Series [9] relates to formalin-induced pain in mice. Nature of the series: Formalin-induced spontaneous pain behaviours. Type of series: in vivo, mouse (C57BL/6 J). The method, then:
as §2
Formalin (1% v/v) was administered by i.pl injection in mice as previously described. […] Spontaneous pain behaviours were counted from video recordings. Phase I was defined as 0–10 min and Phase II defined as 10–55 min following formalin injection.

The subject of series [10] is mice and human lacking functional NaV1.7. The conditions noted are these: in vivo; cited from earlier work.
For a further series, the system named is NaV isoforms. As to conditions: up to 2 μM; cited from earlier work.

For buprenorphine, the “time to withdrawal, acute heat” value in [1] (buprenorphine 50 μg/kg i.p., control 6.3 ± 0.5 s) came to 7.2 ± 0.5 s.
For the compound “ProTx-II: NaV1.7 selective spider peptide from the venom of Thrixopelma pruriens”, the analgesic activity result in [2] was “lack analgesic activity”. The plasma levels result in series [3] (rodent) is “plasma levels sufficient to inhibit NaV1.7 in vitro”. The “onset of effect at NaV1.7” value in the series with NaV1.7 [4] is given as “slow onset of effect”.
As for `O=C(O)CNC(=O)C(CS)Cc1ccccc1` (centres unmarked) [thiorphan], the “time to withdrawal, acute heat” value in series [1] (thiorphan 20 mg/kg i.p., control 5.7 ± 0.9 s) was 5.0 ± 0.4 s.
Take `NCC1(CC(=O)O)CCCCC1` [gabapentin]: in series [5] (gabapentin 100 mg/kg i.p., control 1.1 ± 0.3 g, P > 0.05, n = 3–8), the “paw withdrawal force (PWF)” value is 1.1 ± 0.1 g. The “paw withdrawal temperature (PWT)” value in series [6] (gabapentin 100 mg/kg i.p., control 44.5 ± 0.9 °C, n = 3–8) stood at 45.4 ± 0.5 °C.
As for `Nc1[nH]ncc1-c1cc(Cl)ccc1Oc1cc(F)c(S(=O)(=O)Nc2cscn2)cc1Cl` [PF-05089771], in the series on NaV1.7 [4], the “state preference at NaV1.7” value is reported as “preferentially bind to the slow inactivated state”.
With `Cn1nccc1-c1ccccc1Oc1ccc(S(=O)(=O)Nc2nccs2)cc1C#N` [PF-04856264], the “efficacy in the OD1 model” value in the series with NaV1.7 [7] is “efficacy in the OD1 model at a dose of 30 mg/kg was previously reported”. Also, the blood-brain barrier penetration result in series [3] (expectation) is listed as “unlikely to cross the blood-brain barrier”. Further, the “potency at the rat NaV1.7 channel” value with rat NaV1.7 channel is recorded as “low potency at the rat NaV1.7 channel”. Moreover, the “state preference at NaV1.7” value in the series on NaV1.7 [4] is on record as “preferentially bind to the slow inactivated state”. The “paw withdrawal force (PWF)” value in series [5] (PF-04856264 30 mg/kg i.p., control 1.2 ± 0.2 g, P > 0.05, n = 4–12) was 1.5 ± 0.3 g. In addition, the “paw withdrawal temperature (PWT)” value in [6] (PF-04856264 30 mg/kg i.p., control 44.1 ± 0.5 °C, n = 4–12) was found to be 44.4 ± 1.2 °C. Also, the “time to withdrawal, hot plate” value in series [8] is given as 30.7 ± 3.8 s. Besides, the “formalin Phase I and Phase II pain behaviours” value in series [9] (30 mg/kg i.p., formalin 1% i.pl., P > 0.05, two-way ANOVA, n = 4–15) was “neither Pn3a (3 mg/kg i.p.) (Fig. 7d) or PF-04856264 (30 mg/kg ip.) (Figure 7e) significantly reduced Phase I or Phase II pain behaviours”.
With `C=CCN1CC[C@]23c4c5ccc(O)c4O[C@H]2C(=O)CC[C@@]3(O)[C@H]1C5` [naloxone], the reversal of analgesia entry in series [10] is “substantially reverses analgesia”.
One may read the IC50 as the concentration needed to halve the response being measured. In the case of “phlotoxin 1: previously characterized spider peptide NaV1.7 inhibitor”, the 50% inhibitory concentration (IC50) in the series on NaV1.7 [4] was 260 nM. The “effect on other NaV isoforms” value in the series on NaV isoforms is listed as “no effect on other NaV isoforms”. The “time to withdrawal, acute heat” value in series [1] (phlotoxin 1 50 μg/kg i.p., buprenorphine experiment, control 6.3 ± 0.5 s) amounted to 5.8 ± 0.7 s; in series [1] (phlotoxin 1 50 μg/kg i.p., thiorphan experiment, control 5.7 ± 0.9 s), 7.3 ± 0.9 s.
With `COc1ccc2c3c1O[C@H]1C(=O)CC[C@@]4(O)[C@@H](C2)N(C)CC[C@]314` [oxycodone], the “paw withdrawal force (PWF)” value in series [5] (oxycodone 0.67 mg/kg i.p., control 1.2 ± 0.2 g, n = 4–12) is 1.8 ± 0.2 g. The “pain behaviours, formalin Phase II” value in series [9] (oxycodone 1 mg/kg i.p., control 227 ± 14, n = 7–11) stood at 231 ± 22.
